Usually Papp stands for the rate of passage across a membrane or cell layer, normalised by area and donor concentration. The fraction unbound is the share of the substance not bound to proteins or other matrix. High values mean weak binding, low ones extensive binding. For orientation: Ki means the equilibrium dissociation constant of an inhibitor or competing ligand from its target. As usually defined, the EC50 is the concentration that produces a half-maximal response. The clearance is a measure of how efficiently the substance is removed, as volume per time. Read a high clearance as a high capacity for elimination. The half-life is the time needed for the level to fall by half in the phase considered. The bioavailability is dose-corrected exposure relative to a reference, in per cent. Higher therefore signals good availability. Broadly, the Tmax is the time from dosing to the highest level.

The test system of one series is MDR1. Put plainly: Apparent permeability in pig LLC-PK1 cells transfected with MDR1. The class given is ADME, cell-based, Sus scrofa.
The nature of series [1]: Fraction unbound in human plasma at 2.5 uM by equilibrium dialysis. The class given is ADME, cell-free. A general note: Equilibrium dialysis compares concentrations on both sides of a semipermeable membrane.
Series [2] concerns the target T1, Protein O-GlcNAcase (Homo sapiens, UniProt O60502).
T1 sequence (O60502 whole entry): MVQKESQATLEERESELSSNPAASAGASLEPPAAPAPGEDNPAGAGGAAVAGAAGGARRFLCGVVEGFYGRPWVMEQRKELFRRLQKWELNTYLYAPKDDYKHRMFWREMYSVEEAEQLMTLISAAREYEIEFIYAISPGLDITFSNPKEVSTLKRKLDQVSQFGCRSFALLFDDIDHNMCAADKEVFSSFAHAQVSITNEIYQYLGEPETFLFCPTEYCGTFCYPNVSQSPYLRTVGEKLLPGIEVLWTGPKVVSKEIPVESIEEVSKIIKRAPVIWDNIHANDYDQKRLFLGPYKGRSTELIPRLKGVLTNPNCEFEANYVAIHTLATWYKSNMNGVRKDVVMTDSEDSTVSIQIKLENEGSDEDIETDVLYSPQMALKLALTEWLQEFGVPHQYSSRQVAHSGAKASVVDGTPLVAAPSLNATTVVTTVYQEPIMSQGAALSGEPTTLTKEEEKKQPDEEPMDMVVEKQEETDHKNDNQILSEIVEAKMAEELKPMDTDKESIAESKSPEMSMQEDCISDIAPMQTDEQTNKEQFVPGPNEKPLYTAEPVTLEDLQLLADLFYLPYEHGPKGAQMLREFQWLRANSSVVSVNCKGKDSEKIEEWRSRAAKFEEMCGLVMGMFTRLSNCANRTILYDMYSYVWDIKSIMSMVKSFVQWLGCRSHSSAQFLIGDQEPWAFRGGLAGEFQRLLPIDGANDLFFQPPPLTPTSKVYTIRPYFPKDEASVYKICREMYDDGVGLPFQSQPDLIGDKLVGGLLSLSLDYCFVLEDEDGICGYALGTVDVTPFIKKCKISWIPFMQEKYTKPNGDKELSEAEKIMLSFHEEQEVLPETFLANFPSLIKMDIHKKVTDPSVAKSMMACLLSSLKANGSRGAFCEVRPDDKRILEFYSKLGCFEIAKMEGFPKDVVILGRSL
Put plainly: Inhibition of recombinant human OGA.

For series [3], the target named is T2, Protein O-GlcNAcase (Rattus norvegicus, UniProt Q8VIJ5).
T2 sequence (Q8VIJ5 whole entry): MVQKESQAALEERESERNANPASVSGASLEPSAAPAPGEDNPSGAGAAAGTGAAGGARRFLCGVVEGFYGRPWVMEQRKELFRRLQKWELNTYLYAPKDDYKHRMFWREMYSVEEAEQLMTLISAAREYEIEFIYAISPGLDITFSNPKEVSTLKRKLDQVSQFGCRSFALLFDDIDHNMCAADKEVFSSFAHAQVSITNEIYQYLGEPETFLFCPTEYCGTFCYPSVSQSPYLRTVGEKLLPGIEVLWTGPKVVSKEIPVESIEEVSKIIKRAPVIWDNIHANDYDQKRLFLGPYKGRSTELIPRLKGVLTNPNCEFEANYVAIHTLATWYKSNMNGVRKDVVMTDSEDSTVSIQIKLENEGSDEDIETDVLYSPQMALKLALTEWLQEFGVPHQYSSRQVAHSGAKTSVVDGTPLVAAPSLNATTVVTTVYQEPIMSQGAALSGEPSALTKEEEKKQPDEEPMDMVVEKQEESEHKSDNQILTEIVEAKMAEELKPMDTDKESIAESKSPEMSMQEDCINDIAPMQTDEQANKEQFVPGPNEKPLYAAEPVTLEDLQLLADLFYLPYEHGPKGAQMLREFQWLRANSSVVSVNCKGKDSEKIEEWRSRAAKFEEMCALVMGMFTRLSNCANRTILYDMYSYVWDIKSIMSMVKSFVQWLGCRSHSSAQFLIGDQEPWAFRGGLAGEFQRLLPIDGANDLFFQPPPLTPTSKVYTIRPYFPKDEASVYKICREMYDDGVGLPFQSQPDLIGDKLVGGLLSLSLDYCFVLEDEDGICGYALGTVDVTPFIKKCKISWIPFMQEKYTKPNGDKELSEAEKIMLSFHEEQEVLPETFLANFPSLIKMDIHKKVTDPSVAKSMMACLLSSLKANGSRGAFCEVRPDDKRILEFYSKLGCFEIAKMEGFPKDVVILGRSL
As to the kind of experiment: Inhibition of OGA in rat PC12 cells assessed as OGlcNAcylated protein level incubated for 24 hrs by ELISA. Format: cell-based. (In general: ELISA stands for enzyme-linked immunosorbent assay.)

In series [4] the target is T3, Beta-hexosaminidase subunit beta (Homo sapiens, UniProt P07686).
T3 sequence (P07686 whole entry): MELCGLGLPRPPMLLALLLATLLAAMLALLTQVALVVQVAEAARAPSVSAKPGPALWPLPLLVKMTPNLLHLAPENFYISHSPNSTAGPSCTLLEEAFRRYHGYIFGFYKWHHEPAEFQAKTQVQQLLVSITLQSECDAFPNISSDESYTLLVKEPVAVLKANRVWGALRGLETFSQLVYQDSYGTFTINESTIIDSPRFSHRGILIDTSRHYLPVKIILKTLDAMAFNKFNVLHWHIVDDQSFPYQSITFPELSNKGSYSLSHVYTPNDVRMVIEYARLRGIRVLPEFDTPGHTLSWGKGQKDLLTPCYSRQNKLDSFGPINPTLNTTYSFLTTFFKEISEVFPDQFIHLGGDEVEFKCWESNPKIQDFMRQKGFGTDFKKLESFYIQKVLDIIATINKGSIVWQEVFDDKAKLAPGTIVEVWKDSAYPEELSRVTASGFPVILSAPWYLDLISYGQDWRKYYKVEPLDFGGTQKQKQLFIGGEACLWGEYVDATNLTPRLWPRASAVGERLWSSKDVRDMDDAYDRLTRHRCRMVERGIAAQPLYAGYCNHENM
As to the kind of experiment: Inhibition of human beta hexosaminidase assessed as inhibitory constant using 4-methylumbelliferyl N-acetyl-beta-D-glucosaminide dihydrate as substrate measured every 60 sec for 45 mins by fluorescence spectrophotometry.

Series [5] is described as follows: Fraction unbound in Wistar Han rat plasma at 2.5 uM by equilibrium dialysis. Format: ADME, cell-free.
Series [6] is described as follows: AUCN in Wistar Han rat at 3 mg/kg, po. Format: ADME, organism-based. The settings on record: in vivo.
Series [7] is described as follows: Clearance in Wistar Han rat at 1 mg/kg, iv. Format: ADME, organism-based. The settings on record: in vivo.
Series [8] can be described thus: Half life in Wistar Han rat at 1 mg/kg, iv. The class given is ADME, organism-based. The following applies: in vivo.
The nature of series [9]: Volume of distribution at steady state in Wistar Han rat at 1 mg/kg, iv or 3 mg/kg, po. Format: ADME, organism-based. The settings on record: in vivo, read-out: Vdss.
A short description of series [10]: Oral bioavailability in Wistar Han rat at 3 mg/kg. Format: ADME, organism-based. The settings on record: in vivo.
For series [11], the system named is Rattus norvegicus. As to the kind of experiment: Elevation of O-protein in rat brain at 3 mg/kg, po measured after 8 hrs relative to control. Format: functional.
Series [12] has as its system Rattus norvegicus. Put plainly: Elevation of O-protein in rat brain at 3 mg/kg, po measured after 24 hrs relative to control. The class given is functional.
Series [13] is described as follows: Drug uptake in rat brain at 3 mg/kg, po measured after 8 hrs. The class given is ADME, organism-based. The following applies: in vivo.
Series [14] can be described thus: Drug uptake in rat brain at 3 mg/kg, po measured after 24 hrs. The following applies: in vivo. The class given is ADME, organism-based.
Series [15] can be described thus: Ratio of drug uptake in rat brain to plasma at 3 mg/kg, po measured after 8 hrs. Format: ADME, organism-based. The settings on record: read-out: BPR.
A short description of series [16]: Ratio of drug uptake in rat brain to plasma at 3 mg/kg, po measured after 24 hrs. The class given is ADME, organism-based. The settings on record: read-out: BPR.
Series [17] can be described thus: Tmax in rat brain at 3 mg/kg, po measured upto 24 hrs. The class given is ADME, organism-based.
Series [18] in a line: AUC (0 to 24 hrs) in rat brain at 3 mg/kg, po measured upto 24 hrs. The class given is ADME, organism-based. On the set-up: dose 3 mg/kg, time < 24 hr, route oral. The following applies: in vivo.
Series [19] has as its system Rattus norvegicus. As to the kind of experiment: Increase in O-protein AUC in rat brain at 3 mg/kg, po measured upto 24 hrs. Format: ADME, organism-based. The settings on record: in vivo.

Consider `CNC1=N[C@@H]2[C@H](F)[C@H](O)[C@@H](CF)O[C@@H]2S1`, for which the Papp in the series with MDR1 came to 26 ×10⁻⁶ cm/s. Further, the fraction unbound at 2.5 µM in series [1] and in series [5] was above 0.99 in each case. In addition, the values for the Ki (at Protein O-GlcNAcase [2]; in series [4]) were 0.035 µM and above 10 µM, respectively. Further, the EC50 on Protein O-GlcNAcase [3] was 0.328 µM. Moreover, the AUC/dose in series [6] amounted to 2.96 µM·kg·h/mg. The compound also displayed a clearance in [7] of 14.4 mL/min/kg. For the same compound, in series [8], the half-life was 1.18 h. In addition, the Vd in [9] amounted to 0.85 L/kg. The compound also returned a bioavailability in series [10] of 60.5%.
Regarding `CNC1=N[C@@H]2[C@H](F)[C@H](O)[C@@H](CO)O[C@@H]2S1`, the fraction unbound at 2.5 µM in [1] is 0.84; in series [5], 0.96. The Ki is 0.00053 µM at Protein O-GlcNAcase [2] and above 10 µM in series [4]. Further, the half-maximal effective concentration (EC50) on Protein O-GlcNAcase [3] was 0.0106 µM. The AUC/dose in series [6] was 1.43 µM·kg·h/mg. The compound also came in with a clearance in series [7] of 36.8 mL/min/kg. In [8], this compound gave a half-life of 1.27 h. For the same compound, in [9], the Vd was determined as 2 L/kg. The compound also gave a bioavailability in series [10] of 70.4%. The “fold change (FC)” value in the series on Rattus norvegicus [11] is given as 2.13; in the series on Rattus norvegicus [12], 1.45; in the series on Rattus norvegicus [19], 18.44. The Drug uptake in series [13] is on record as 0.099 nmol/g; in series [14] it was 0.074 nmol/g. In addition, the Kp at 8 h in series [15] was found to be 1.67. The Kp at 24 h in series [16] is at least 29.5. Also, the Tmax in series [17] is 8 h. Moreover, the AUC in series [18] is 1.963 nM·h/g.

Values taken from ChEMBL document CHEMBL4354805, “Discovery of MK-8719, a Potent O-GlcNAcase Inhibitor as a Potential Treatment for Tauopathies” (J Med Chem, 2019).
